Laboratory results published in patent US10899910B2, “Quaternary cationic polymers” (ECOLAB USA, INC., priority 2016, dated 2021).

Columns and labels:
[1] = system: mixture of aerobic populations from more than 30 cooling systems in North America; experiment: Non-oxidative antimicrobial efficiency test in cooling water (ASTM E645-02a); assay type: cell-based, bacteria (specific species not identified); settings: at the tested concentrations
Protocol: Antimicrobial efficiency of the synthesized compounds was tested using a non-oxidative antimicrobial efficiency test procedure according to ASTM method for microbiocide efficiency in cooling water (E645-02a, 2005). The bacteria used in the efficacy testing comprised a mixture of aerobic populations from more than 30 cooling systems in North America. The specific species were not identified. Those species were grown on R2A agar.
In one experiment, various concentrations (0 ppm, 5 ppm, 10 ppm, 20 ppm, 30 ppm, 40 ppm, and 50 ppm) of Compound 1 were applied to bacteria in water. The log 10 concentration in colony forming units (CFU/ml) was measured at four time points (0 min, 60 min, 240 min, and 1440 min).
The microbial activity of Compounds 1-4 at a concentration of 50 ppm was tested according to the same procedure described above.
The antimicrobial activity of Compound 4 was tested using the same procedures as described above.

[2] = system: bacterial spores or thermophiles; experiment: Anti-spore and anti-thermophile activity; assay type: cell-based; settings: about 20 ppm; for Log Reduction: vs control
Protocol: The effect of the compounds on bacterial spores or thermophiles was also tested. Compounds 1 and 4 were incubated separately with spores or thermophiles at a concentration of about 20 ppm, and the reduction in concentration was measured at four time points (See Table 3).

[3] = Corrosion bubble cell test (Linear Polarization Resistance); settings: 2 ppm with 1% 2ME synergist; CO2-saturated brine/hydrocarbon, 80° C.; three hours baseline (Tables 8, 9)
Protocol: (§1) Cationic polymer salts were evaluated for corrosion performance as compared to a C12-C18 alkyl dimethyl benzyl ammonium chloride via a bubble test procedure. The bubble test simulates low flow areas where little or no mixing of water and oil occurs. The test was conducted using brine (80% of the brine being 3% sodium chloride brine and 20% of the brine being a hydrocarbon containing 75% LVT-200 kerosene oil and 25% xylene). The brine was placed into kettles and purged with carbon dioxide. The brine was continually purged with carbon dioxide to saturate the brine prior to starting the test. After the test began, the test cell was blanketed with carbon dioxide one hour prior to electrode insertion and through the duration of the test to maintain saturation. The kettles were stirred at 150 revolutions per minute (rpm) for the duration of the test to maintain thermal equilibrium at 80° C. The corrosion rate was measured by Linear Polarization Resistance (LPR) techniques. The working electrode used was carbon steel. The counter and reference electrodes were both 1018 carbon steel. The electrodes were all cleaned and polished prior to testing. Data were collected for three hours before 20 ppm of each of the compositions (containing 2 ppm of each of various pentaquaternary cationic polymer salts or the comparative C12-C18 alkyl dimethyl benzyl ammonium chloride and 1% 2-mercaptoethanol (2ME) as synergist in an organic solvent) was dosed into its respective cell. Data were collected overnight. A low concentration of the compositions was used to differentiate between the compositions.
Corrosion bubble cell tests were performed according to the method of Example A1 to evaluate a hexaquaternary cationic polymer salt for corrosion performance as compared to a C12-C18 alkyl dimethyl benzyl ammonium chloride. Data were collected for three hours before 20 ppm of each of the compositions (containing 2 ppm of a hexaquaternary cationic polymer salt or the comparative C12-C18 alkyl dimethyl benzyl ammonium chloride and 1% 2ME as synergist in an organic solvent) was dosed into its respective cell. Data were collected overnight. A low concentration of the compositions was used to differentiate between the compositions.
as §1, with “six” for “three”, “polyethyleneimine-based” for “pentaquaternary”, “cell. However, for the comparative composition, data was only collected three hours before addition of the compositions.” for “cell.”

[4] = Surface tension measurement (Tracker tensiometer); assay type: physicochemical; settings: room temperature
Protocol: Surface tension measurements were conducted on a Tracker tensiometer (Teclis Instruments) at room temperature. Various concentrations of surfactant solutions were prepared and measurements were conducted.
The surface tension as a function of concentration of the cationic surfactant samples were measured and are listed in Table 2, where NT means not tested.

[5] = system: collection of aerobic bacteria from 30 water samples in cooling towers across North America; experiment: Biofilm reduction (biofilm inhibition test, stain absorbance at 590 nm); assay type: cell-based; settings: for (Comp. - Single Quat 2)*100 / Single Quat 2: biofilm reduction relative to Single Quat 2
Protocol: Biofilm reduction experiments were conducted to test the efficacy of multi-quaternary cationic polymers compared to single quaternary compounds. Two different compositions were prepared containing single quaternary compounds: a composition (Single Quat 1) comprising about 50% by weight bisoctyl dimethyl ammonium chloride (CAS #5538-94-3) and about 5-10% by weight glycerin; and a composition (Single Quat 2) comprising about 50% by weight didecyl-dimethyl ammonium chloride (CAS #7173-51-5) and about 10-30% by weight ethanol. The test bacteria comprised a collection of aerobic bacteria from 30 water samples in cooling towers across North America. Different concentrations of cationic polymer salts and single quaternary compounds were tested ranging from about 0.8 ppm to about 1000 ppm. Using the biofilm inhibition test protocols, the absorbed stains were extracted and absorbance was measured at 590 nm. The biofilm reduction was calculated by comparing the absorbance of treated vs untreated controls, then averaged over six replicates.

CCCCCCCCCCCCCCCCCC[N+](C)(C)CC(O)CN(CCN(CC(O)C[N+](C)(C)C)CC(O)C[N+](C)(C)CCCCCCCCCCCCCCCCCC)CCN(CC(O)C[N+](C)(C)C)CC(O)C[N+](C)(C)CCCCCCCCCCCCCCCCCC.[Cl-].[Cl-].[Cl-].[Cl-].[Cl-] (centres unmarked) [Compound 4]
antimicrobial activity [1]: significant antimicrobial activity | Log cfu/ml ([2]; contact time 0 min): 2.53 Log cfu/ml | Log Reduction ([2]; contact time 0 min): −0.04 | Log cfu/ml ([2]; contact time 60 min): 1.6 Log cfu/ml | Log Reduction ([2]; contact time 60 min): 0.74 | Log cfu/ml ([2]; contact time 240 min): 0.00 Log cfu/ml | Log Reduction ([2]; contact time 240 min): 2.48 | Log cfu/ml ([2]; contact time 1440 min): 1.78 Log cfu/ml | Log Reduction ([2]; contact time 1440 min): 0.75

CCCCCCCCCCCCCCCCCC[N+](C)(C)CC(O)CN(CCN(CCN(CC(O)C[N+](C)(C)C)CC(O)C[N+](C)(C)CCCCCCCCCCCCCCCCCC)CC(O)C[N+](C)(C)C)CC(O)C[N+](C)(C)C.[Cl-].[Cl-].[Cl-].[Cl-].[Cl-] (centres unmarked) [Compound 9]
% Protection [3]: 60% | Surface tension ([4]; concentration 0.010 %): 73.11 mN/m | Surface tension ([4]; concentration 0.025 %): 69.16 mN/m | Surface tension ([4]; concentration 0.050 %): 60.77 mN/m | Surface tension ([4]; concentration 0.100 %): 54.69 mN/m | Surface tension ([4]; concentration 0.200 %): 52.05 mN/m | Surface tension ([4]; concentration 0.500 %): 50.09 mN/m | Surface tension ([4]; concentration 1.000 %): 49.38 mN/m | Biofilm reduction ([5]; active conc. 0.8 ppm): 20.5% | (Comp. - Single Quat 2)*100 / Single Quat 2 ([5]; active conc. 0.8 ppm): 314.7% | Biofilm reduction ([5]; active conc. 1.6 ppm): 35.9% | (Comp. - Single Quat 2)*100 / Single Quat 2 ([5]; active conc. 1.6 ppm): −9.6% | Biofilm reduction ([5]; active conc. 3.0 ppm): 41.2% | (Comp. - Single Quat 2)*100 / Single Quat 2 ([5]; active conc. 3.0 ppm): −43.2% | Biofilm reduction ([5]; active conc. 6.0 ppm): 45.4% | (Comp. - Single Quat 2)*100 / Single Quat 2 ([5]; active conc. 6.0 ppm): −11.1% | Biofilm reduction ([5]; active conc. 8.0 ppm): 62.6% | (Comp. - Single Quat 2)*100 / Single Quat 2 ([5]; active conc. 8.0 ppm): −8.6% | Biofilm reduction ([5]; active conc. 12.0 ppm): 70.9% | (Comp. - Single Quat 2)*100 / Single Quat 2 ([5]; active conc. 12.0 ppm): −13.2% | Biofilm reduction ([5]; active conc. 16.0 ppm): 79.0% | (Comp. - Single Quat 2)*100 / Single Quat 2 ([5]; active conc. 16.0 ppm): −15.5% | Biofilm reduction ([5]; active conc. 25.0 ppm): 76.8% | (Comp. - Single Quat 2)*100 / Single Quat 2 ([5]; active conc. 25.0 ppm): −15.9% | Biofilm reduction ([5]; active conc. 31.0 ppm): 46.9% | (Comp. - Single Quat 2)*100 / Single Quat 2 ([5]; active conc. 31.0 ppm): −50.8% | Biofilm reduction ([5]; active conc. 50.0 ppm): 77.6% | (Comp. - Single Quat 2)*100 / Single Quat 2 ([5]; active conc. 50.0 ppm): −15.9% | Biofilm reduction ([5]; active conc. 62.0 ppm): 90.7% | (Comp. - Single Quat 2)*100 / Single Quat 2 ([5]; active conc. 62.0 ppm): −0.4% | Biofilm reduction ([5]; active conc. 100.0 ppm): 97.3% | (Comp. - Single Quat 2)*100 / Single Quat 2 ([5]; active conc. 100.0 ppm): 41.9% | Biofilm reduction ([5]; active conc. 125.0 ppm): 98.9% | (Comp. - Single Quat 2)*100 / Single Quat 2 ([5]; active conc. 125.0 ppm): 88.6% | Biofilm reduction ([5]; active conc. 250.0 ppm): 99.5% | (Comp. - Single Quat 2)*100 / Single Quat 2 ([5]; active conc. 250.0 ppm): 55.3% | Biofilm reduction ([5]; active conc. 500.0 ppm): 99.6% | (Comp. - Single Quat 2)*100 / Single Quat 2 ([5]; active conc. 500.0 ppm): 23.7% | Biofilm reduction ([5]; active conc. 1000.0 ppm): 99.6% | (Comp. - Single Quat 2)*100 / Single Quat 2 ([5]; active conc. 1000.0 ppm): 33.5% | reduction in biofilm formation ([5]; at concentrations about 100 ppm): greater than 95%
